Legend:
Format in all cases: functional, cell-based
MCF7 = assay: In vitro inhibitory concentration of compound against human cancer MACL MCF-7 cell line was determined
RXF 944 = assay: In vitro inhibitory concentration of compound against human cancer RXF 944 cell line was determined
MEXF514 = assay: In vitro inhibitory concentration of compound against human cancer MEXF 514 cell line was determined

Structure (SMILES)	IC50 (MCF7) [nM]	IC50 (RXF 944) [nM]	IC50 (MEXF514) [nM]
CC(=O)O[C@H]1C(=O)[C@@]2(C)C([C@H](OC(=O)c3ccccc3)C3(O)C[C@H](OC(=O)[C@H](OC(=O)c4ccc(C(C)=O)cc4)[C@@H](NC(=O)c4ccccc4)c4ccccc4)C(C)=C1C3(C)C)[C@]1(OC(C)=O)COC1C[C@@H]2O (stereo not given in full)	130	90	220
CC(=O)O[C@H]1C(=O)[C@@]2(C)[C@H]([C@H](OC(=O)c3ccccc3)[C@]3(O)C[C@H](OC(=O)[C@H](O)[C@@H](NC(=O)c4ccccc4)c4ccccc4)C(C)=C1C3(C)C)[C@]1(OC(C)=O)CO[C@@H]1C[C@@H]2O [PACLITAXEL]		50	1030
